Measurements published in US9265789B2, “Targeting CLPTM1L by RNA interference for treatment and prevention of cancer” (The Medical College of Wisconsin, Inc., priority 2013, dated 2016).

B1: shTERT1: lentiviral shRNA vector targeting TERT (oligos SEQ ID NO: 28/29), used as additional control (nucleic acid)
sense: CCGGAAGTCTGCCGTTGCCCAAGAGCTCGAGCTCTTGGGCAACGGCAGACTTTTTTT
antisense: AATTAAAAAAACTGCATCCAGCCCTATCTGCTCGAGCAGATAGGGCTGGATGCAGTT

Experiments:
[1] = system: CLPTM1L transcript; assay: CLPTM1L transcript knockdown by RT-quantitative real-time PCR in Spon8 cells; assay type: cell-based; details: Spon8 mouse lung tumor cells; qPCR normalized to beta-Actin
Protocol: Spon8 cells were cultured in RPMI1640 plus 2% FBS (Invitrogen, Carlsbad, Calif.). Cells were transduced with lentiviral short-hairpin RNA (shRNA) vectors based on the pLKO.1 vector and designed to specifically target human CLPTM1L transcript (Sigma, St. Louis). Empty vector or vector knocking down CLPTM1L transcript were first packaged in 293T cells (Orbigen, San Diego, Calif.) by transfection with helper plasmids using Lipofectamine LTX (Invitrogen, Carlsbad, Calif.) and then transduced into Spon 8 cells with 8 μg/ml Polybrene (Sigma, St. Louis, Mo.). Media was replaced 24 hours after transduction, and cells were split 1:4 48 hours after transduction. […]
Patient matched tumor and tumor-adjacent normal RNA samples were obtained from the Tissue Procurement Core at Washington University in St. Louis under protocol approved by the Institutional Review Board at Washington University in St. Louis School of Medicine, Human Research Protection Office. […] Quantitative real-time PCR (qPCR) was conducted using the method as described previously (Chaparro, Wen et al. 2005). […] Quantitative RT-PCR assay was done using the SYBR Green PCR Master Mix (Applied Biosystems, Foster City, Calif.). […] Data were collected and analyzed with Stratagene Mx3000 software. […] Primer set efficiency and linearity was calculated, and normalization was performed in accordance with MIQE guidelines. […]

[2] = system: Bcl-xL; assay: Bcl-xL protein accumulation by western blot in Spon8 cells; assay type: cell-based, mouse
Protocol: The indicated cell lines were treated with cisplatin at the indicated concentrations on 6-well plates for 72 hours. Cells were lysed with 100 μl of 1× NP40 lysis buffer containing proteinase inhibitors, sheared 10 times with a 28 gauge needle, spun at 16,000×g for 30 minutes, normalized by protein concentration as determined by the Bradford method, and the supernatant boiled for 5 minutes. 20 μl of normalized lysate was resolved by SDS-PAGE and immunoblotting analyzed with indicated antibodies. The following antibodies were used: rabbit anti-CLPTM1L (Novus Biologicals, Littleton, Colo.), mouse anti-Actin (Santa Cruz Biotechnology, Santa Cruz, Calif.), mouse anti-Bcl2 clone 124 (Dako, Carpinteria, Calif.), rabbit anti-Bax #2774 (Cell Signaling, Boston, Mass.), mouse anti-p53 (Ab-1) (Oncogene, San Diego, Calif.), Bcl-xL-rabbit Bcl2L1 (AbCam, Cambridge, Mass.), rabbit anti-H-Ras (Novus Biologicals, Littleton, Colo.), mouse anti-K-Ras(BD Transduction Labs, Franklin, N.J.), anti-Akt(Cell Signaling, Boston, Mass.), antipAKT(Thr308)(Cell Signaling, Boston, Mass.), rabbit anti-PIK3C3 (Cell Signaling, Boston, Mass.), rabbit anti-BAD(AbCam, Cambridge, Mass.). Quantitation of Western analyses of three independent cultures was done using Image J software available online from the National Institutes of Heath at rsbweb.nih.gov on the World Wide Web.

[3] = system: Spon8 mouse lung tumor cells; assay: Viability assay (MTS) after cisplatin treatment; assay type: cell-based; details: 20 μM cisplatin for 48 hours; compared to vector and sh1; p=9.6E-6
Protocol: Cells stably expressing shRNA vectors as described above were seeded onto 12-well tissue culture dishes at equal densities of approximately 50% in triplicate. After attachment overnight followed by 48 hours of treatment with the indicated concentrations of cisplatin (Sigma, St. Louis, Mo.) dissolved in media. DMSO concentrations in culture media were kept consistent and were at or below 0.08%. Cell viability was measured by Cell Titer 96 Aqueous One Solution Cell Proliferation Assay (MTS) in triplicate. P-values were determined by one-tailed Student's T-Test.

[4] = system: Bcl-xL; assay: Western blotting for Bcl-xL in NIH3T3 cells with K-RasV12 expression; assay type: cell-based, mouse
Protocol: (§1) The indicated cell lines were treated with cisplatin at the indicated concentrations on 6-well plates for 72 hours. Cells were lysed with 100 μl of 1× NP40 lysis buffer containing proteinase inhibitors, sheared 10 times with a 28 gauge needle, spun at 16,000×g for 30 minutes, normalized by protein concentration as determined by the Bradford method, and the supernatant boiled for 5 minutes. 20 μl of normalized lysate was resolved by SDS-PAGE and immunoblotting analyzed with indicated antibodies. […] Quantitation of Western analyses of three independent cultures was done using Image J software available online from the National Institutes of Heath at rsbweb.nih.gov on the World Wide Web.
(§2) NIH3T3 cells acquired within the last 6 months from ATCC were cultured in DMEM 10% FBS to 80% confluence before co-transfecting with the indicated expression and shRNA vectors using Lipofectamine LTX (Invitrogen, Carlsbad, Calif.). […] Images of wells were captured and analyzed by Image J software to count colonies. P-values were determined using a two-tailed Student's T-Test.

[5] = system: phosphorylated (T308) Akt; assay: Western blotting for phosphorylated (T308) Akt in NIH3T3 cells with K-RasV12 expression; assay type: cell-based, mouse; details: NIH3T3 cells expressing K-RasV12, CLPTM1L stably depleted
Protocol: as §1, §2

[6] = system: 3T3 mouse fibroblasts; assay: Transformation assay (morphology, foci) in Ras-transfected 3T3 fibroblasts; assay type: cell-based
Protocol: (§3) NIH3T3 cells acquired within the last 6 months from ATCC were cultured in DMEM 10% FBS to 80% confluence before co-transfecting with the indicated expression and shRNA vectors using Lipofectamine LTX (Invitrogen, Carlsbad, Calif.). Cells were split, allowed to attach and placed on puromycin selection for 3 days or until mock transfected cells were dead. Cells were plated at the indicated densities and fed as needed. For whole plate staining, cells were fixed in cold methanol and stained with crystal violet. For anchorage independent growth, cell were suspended in 0.4% agarose in complete growth media and plate over 0.8% bottom agar at 10,000 cells per well (H-Ras) or 20,000 cells per well (K-Ras) of a six-well tissue culture dish in triplicate. Cells were fed twice a week over 4 weeks in culture, and colonies were stained using cell staining reagent and protocol from Millipore's Cell Transformation Detection Assay. Images of wells were captured and analyzed by Image J software to count colonies. P-values were determined using a two-tailed Student's T-Test.

[7] = system: Ras transformed 3T3 cells; assay: Soft agar anchorage independent growth assay; assay type: cell-based, mouse
Protocol: as §3

[8] = system: oncogenic K-Ras driven lung tumors; assay: shRNA/K-Ras LSL-G12D/+ mouse model of lung tumorigenesis; assay type: in vivo; details: for inhibition of tumor number / inhibition of tumor load: vs scrambled shRNA
Protocol: Mouse experiments were conducted as described by DuPage et al., Nat. Protoc. 4:1064 (2009), with the following modifications. pLKO.1 empty shRNA vector was obtained from Open Biosystems (Foster City, Calif.). Short hairpin inserts were designed to specifically target transcripts. Oligos were ordered from IDT (Coralville, Iowa). Complimentary oligos were heated to 95° C., cooled to room temperature overnight and ligated into digested pLKO.1. Validated constructs used in mouse experiments had the following short-hairpin sequences:
Vectors were modified by replacing the PGK promoter and puromycin resistance orf with the CMV promoter driving expression of CRE-GFP. CMV promoter was sub-cloned from pLenti CMV GFP Puro plasmid #17448 (Addgene) and CRE-GFP was sub-cloned from pCAG:CRE-GFP plasmid #13776 (Addgene). Virus was packaged in 293T cells and functionally titered by infecting 3TZ cells (LSL-LacZ), which express LacZ upon Cre recombinase activation. Mice were anesthetized with 200 μL Avertin ([…]). 10^^4 or 10^^3 active virus particles in 50 μl of phosphate buffered saline was delivered via intratracheal intubation using a 22-gauge IV catheter under general anesthesia to 10 transgenic mice per group (LSL-K-RasG12D (Mouse Models of Human Cancers Consortium (MMHCC) Strain 01XJ6, Jackson Laboratory #008179 (B6), #008180 (129)). […] The thoracic cavity was surgically opened to expose the lungs. The trachea was cannulated with a 22G catheter and lungs were inflated with Tellyesniczky's solution (70% ethanol, 2% formaldehyde, and 5% acetic acid) at 25 cm of pressure by gravity. Lungs were fixed overnight and the solution was exchanged to 70% ethanol the next day. Lungs were photographed, lobes were separated and cleaned. Tumors were counted and measured with digital calipers. A cutoff for visible tumors of 0.2 mm diameter was used. Tumor volume was determined by the following formula: A=4/3πr^3. P-values were determined using a two-tailed Student's T-Test.

[9] = system: TERT transcript; assay: TERT transcript knockdown in Spon8 cells; assay type: cell-based; details: Spon8 mouse lung tumor cells
[10] = high dose group 10^4 functional particles intratracheal, 24 weeks
[11] = low dose group 10^3 particles, 28 weeks post-infection

Molecule	knockdown of CLPTM1L at the transcript level [1]	Bcl-xL expression upon CLPTM1L depletion [2]	sensitivity to cisplatin-induced killing (MTS viability) [3]	K-RasV12 induced elevation of Bcl-xL ([4]; NIH3T3 cells expressing K-RasV12, CLPTM1L stably depleted)	Bcl-xL expression with loss of CLPTM1L ([4]; NIH3T3 mouse fibroblasts, western blotting)	K-RasV12 induced elevation of phospho-Akt [5]	transformed phenotype (foci) on stable co-transfection with H-RasV12 or K-RasV12 [6]	morphological changes with shRNA alone compared to vector controls ([6]; no Ras)	average colonies per well in soft agar ([7]; H-RasV12 expressing 3T3 cells, 10,000 cells per well, control 18 colonies, p<0.03)	inhibition of soft agar colony formation ([7]; K-RasV12 transformed 3T3 cells, 20,000 cells per well, control 56 colonies per well, p<0.02)	average tumor load [8, 10]	average tumor number [8, 10]	inhibition of tumor number ([8]; high dose group, p=0.02)	inhibition of tumor load ([8]; high dose group, p=0.03)	average tumor load [8, 11]	average tumor number [8, 11]	inhibition of tumor load ([8]; low dose group, p<0.002)	inhibition of tumor number ([8]; low dose group, p<0.004)	knockdown of TERT at the transcript level [9]	tumor number and load compared with scrambled control ([8]; high dose group, p=0.58)
shCLP168m: shRNA targeting CLPTM1L, mature sense strand AACTGCATCCAGCCCTATCTG (SEQ ID NO: 4), pLKO.1 lentiviral vector	80%	concurrently reduced	increased sensitivity to cisplatin	ablated	decrease in Bcl-xL expression	ablated	no transformed foci were observed	did not demonstrate morphological changes	one	47%	3.4 mm^3	46 tumors per mouse	60%	74%	0.01 mm^3	0.14 tumors	98%	98%	–	–
B1	–	–	–	–	–	–	–	–	–	–	10.2 mm^3	122 tumors per mouse	–	–	0.41 mm^3	5 tumors	–	–	50%	statistically similar to the control group
